Like-named read-outs stand apart in the source and are kept apart here.
Key:
in vivo [1] = experiment: in vivo; set-up: species or system Male SD rats; conditions: D-Trp i.p. 100 mg·kg^−1; for AUC / Cmax / k el / half-life: male, SD, rat, in vivo, ip, 100 mg/kg; for AUC: read-out: AUC of plasma D-Trp; for Cmax: read-out: Cmax of plasma D-Trp; for k el: read-out: Ke of plasma D-Trp (converted); for half-life: read-out: t1/2 of plasma D-Trp
Protocol: (§1) Administration of Ket to rats was carried out as previously reported.[9]) Ketamine hydrochloride (Wako Pure Chemicals Co., Ltd., Osaka, Japan) was dissolved in physiological saline ([…]) and then intraperitoneally (i.p.) administered (30 mg·kg^−1) to 7-week-old rats daily for 5 consecutive days. The control animals received only saline (1 mL·kg^−1·day^−1). The rats were used for experiments 4 weeks after cessation of the ketamine or saline treatment.
[…] A heparinized syringe with a 25-gauge needle was used to draw blood (approximately 0.20 mL) from the left jugular vein 0.5, 1, 1.5, 2, 3, 4, 5, and 6 h after administration of D-Trp. The blood was treated in a similar manner as described in previous paper.[17]) Plasma D-Trp concentration was determined by our previously published HPLC method.[17])
(§2) Pharmacokinetic parameters obtained in the present study were determined by a simplex method analysis or moment analysis. Statistical analyses were performed using a one-way analysis of variance (ANOVA), followed by Bonferroni’s multiple comparison test. A p value below 0.05 was judged as a significant difference.

DAAO = system: DAAO; set-up: method as in PMID 20801337; conditions: D-Trp as substrate for DAAO; cited from earlier work
in vivo [2] = assay type: in vivo, Male SD rats
Protocol: as §1
A solution of MPC (5.0 or 50 mg·kg^−1·3 mL^−1) was prepared in PBS/ethanol/PEG (2.8/0.1/0.1) and was i.p. administered to rats. A heparinized syringe with a 25-gauge needle was used to draw blood (approximately 0.20 mL) from the left jugular vein at 0.083, 0.25, 0.5, 1, 2, and 3 h after administration of MPC (5.0 mg·kg^−1, n = 4), or at 0.083, 0.25, 0.5, 1, and 3 h after administration of MPC (50 mg·kg^−1, n = 5–6). Before administration of either dose of MPC, blood (approximately 0.20 mL) was obtained from each rat and used as the control. The blood was centrifuged at 3,000 g for 10 min at 4℃ to obtain plasma. The plasma was transferred to another tube and stored at −80℃ until it was analyzed.
For determining the plasma concentration of MPC, 2 calibration curves (31.25–250 µM and 200–800 µM) were constructed. Ten microliters of PBS or rat blank plasma was spiked with 10 µL of 31.25–800 µM MPC dissolved in CH3CN and 10 µL of 200 µM I.S. dissolved in CH3CN, and vigorously mixed with 70 µL of CH3CN/MeOH (50/50). In the case of plasma samples from the rats administered MPC, 10 µL of CH3CN was used instead of MPC in CH3CN.
After centrifugation at 2,500 rpm for 5 min, 50 µL of the supernatant was sampled and evaporated in vacuo. The obtained residue was dissolved in 100 µL of the mobile phase, 60 µL (31.25–250 µM) or 20 µL (200–800 µM) of the final solution after filtration with Durapore® (0.2 µm membrane, Millipore K.K., Tokyo, Japan), and was injected into the LC-MS system.
The LC-MS apparatus comprised an Agilent 1200 series HPLC (Agilent Technologies, CA, U.S.A.) and a time of flight (TOF)-MS, JMS-T100 LP AccuTOF LC-Plus, equipped with an electrospray ionization (ESI) source (JEOL Co. Ltd., Tokyo, Japan). The separation column used in this study was TSKgel ODS-80Ts QA (150 mm × 2.0 mm; i.d., 5 µm) (Tosoh Corporation, Tokyo, Japan). For the mobile phase, 0.1% HCO2H in H2O/CH3CN (95/5) was eluted isocratically at 0.16 mL·min^−1. Column temperature was maintained at 40℃. The conditions for ESI-MS detection were as follows: positive ion mode; needle voltage was set at 2,000 V; and the ring lens and orifice 1 and 2 voltages were set at 8, 49, and 4 V, respectively. Nitrogen was used as the nebulizing and desolvating gas, and the pressure was constant at 0.617 MPa. The desolvation chamber and orifice 1 temperatures were 250℃ and 80℃, respectively. The data were obtained using Mass Center software, MS-56010MP (JEOL).
as §2

[3] = molecular target: T1, D-amino acid oxidase (DAAO) (Rattus norvegicus, UniProt O35078); experiment: DAAO-inhibitory effect of MPC in vivo (change of plasma D-Trp concentration after MPC pretreatment); set-up: species or system Male SD rats; conditions: MPC 50 mg·kg^−1 i.p. 30 min before D-Trp 100 mg·kg^−1 i.p.
T1 construct: Male SD rats were purchased from Charles River Japan; from tissue; host or cells: whole animal (male SD rats); DAAO activity is attributed to liver and kidney cells
T1 sequence (O35078 whole entry): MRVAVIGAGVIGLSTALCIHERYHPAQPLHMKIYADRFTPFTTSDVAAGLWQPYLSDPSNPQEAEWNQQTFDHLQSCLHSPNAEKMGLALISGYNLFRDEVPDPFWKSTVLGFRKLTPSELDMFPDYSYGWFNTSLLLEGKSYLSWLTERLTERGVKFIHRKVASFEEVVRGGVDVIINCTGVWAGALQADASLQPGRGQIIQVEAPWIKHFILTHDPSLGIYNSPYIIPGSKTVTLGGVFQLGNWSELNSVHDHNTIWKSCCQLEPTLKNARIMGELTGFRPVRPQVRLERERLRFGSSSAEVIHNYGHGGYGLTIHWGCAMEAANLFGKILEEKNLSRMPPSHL
Protocol: as §1
D-Trp was dissolved in PBS (10 mg·mL^−1) and administered i.p. to control or Ket-treated rats (100 mg·kg^−1; n = 3–5) at 30 min after i.p. administration of MPC (50 mg·kg^−1). A heparinized syringe with a 25-gauge needle was used to draw blood (approximately 0.20 mL) from the left jugular vein 0.5, 1, 1.5, 2, 3, 4, 5, and 6 h after administration of D-Trp. The blood was treated in a similar manner as described in previous paper.[17]) Plasma D-Trp concentration was determined by our previously published HPLC method.[17])
as §2

[4] = rat, in vivo, 10 mg/kg; cited from earlier work
[5] = rat; cited from earlier work
[6] = Ket-treated rat, with pretreatment of MPC (50 mg·kg^−1)
[7] = Ket-treated rat, without pretreatment of MPC
[8] = control rat, with pretreatment of MPC (50 mg·kg^−1)
[9] = control rat, without pretreatment of MPC

N[C@H](Cc1c[nH]c2ccccc12)C(=O)O [D-Trp, D-tryptophan]
CL of plasma D-Trp (in vivo [1]; [6]): 6.73 ± 1.67 mL/min/kg
Vd of plasma D-Trp (in vivo [1]; [6]): 0.544 ± 0.09 L/kg
CL of plasma D-Trp (in vivo [1]; [7]): 11.6 ± 1.83 mL/min/kg
Vd of plasma D-Trp (in vivo [1]; [7]): 0.703 ± 0.07 L/kg
CL of plasma D-Trp (in vivo [1]; [8]): 3.05 ± 0.17 mL/min/kg
Vd of plasma D-Trp (in vivo [1]; [8]): 0.237 ± 0.02 L/kg
CL of plasma D-Trp (in vivo [1]; [9]): 10 ± 0.33 mL/min/kg
Vd of plasma D-Trp (in vivo [1]; [9]): 0.712 ± 0.04 L/kg
AUC (in vivo [1]; [6]): 983 ± 128 µM·h
Cmax (in vivo [1]; [6]): 608 ± 115 µM
k el (in vivo [1]; [6]): 0.0002 s⁻¹
half-life (in vivo [1]; [6]): 60.2 ± 6.1 min
AUC (in vivo [1]; [7]): 719 ± 63.6 µM·h
Cmax (in vivo [1]; [7]): 587 ± 33.5 µM
k el (in vivo [1]; [7]): 0.000269 s⁻¹
half-life (in vivo [1]; [7]): 43.7 ± 2.79 min
AUC (in vivo [1]; [8]): 2080 ± 138 µM·h
Cmax (in vivo [1]; [8]): 1130 ± 75 µM
k el (in vivo [1]; [8]): 0.000214 s⁻¹
half-life (in vivo [1]; [8]): 54 ± 0.1 min
AUC (in vivo [1]; [9]): 693 ± 42.9 µM·h
Cmax (in vivo [1]; [9]): 567 ± 42.6 µM
k el (in vivo [1]; [9]): 0.000236 s⁻¹
half-life (in vivo [1]; [9]): 49.1 ± 1.3 min
Km (DAAO): 845 µM

Cc1cc(C(=O)O)n[nH]1 [MPC, 3-methylpyrazole-5-carboxylic acid]
differences in PK parameters (Cmax, t1/2, AUC) of plasma MPC between control and Ket-treated rats (in vivo [2]; MPC i.p. 5.0 mg·kg^−1): no remarkable differences
time at which the maximum concentration (Cmax) of plasma MPC was reached (in vivo [2]; MPC i.p. 5.0 mg·kg^−1, Ket-treated rats): 0.5 h
time at which the maximum concentration (Cmax) of plasma MPC was reached (in vivo [2]; MPC i.p. 5.0 mg·kg^−1, control rats): 0.5 h
Cmax value of plasma MPC concentration in Ket-treated rats compared with control group (in vivo [2]; MPC i.p. 50 mg·kg^−1): significantly higher
plasma MPC concentrations at 5.0 and 15 min in Ket-treated rats compared with control groups (in vivo [2]; MPC i.p. 50 mg·kg^−1, p < 0.01 and p < 0.05): significantly higher
clearance (CL) of plasma MPC (in vivo [2]; control rats, i.p. administration, present data): 305 mL/min/kg
half-life (in vivo [2]; male, SD, rat, in vivo, ip, control rats, i.p. administration, present data, read-out: t1/2 of plasma MPC): 50.8 min
plasma D-Trp concentrations after MPC pretreatment compared with no pretreatment ([3]; Ket-treated rats): no significant increase
plasma D-Trp concentrations after MPC pretreatment compared with no pretreatment ([3]; control rats): significantly higher
clearance (CL) of plasma MPC [4]: 3.67 mL/min/kg
t1/2 of plasma MPC [4]: 335 min

NC1(c2ccccc2Cl)CCCCC1=O (centres unmarked) [norketamine]
half-life in plasma [5]: 36 to 48 min

CNC1(c2ccccc2Cl)CCCCC1=O (centres unmarked) [ketamine]
half-life in plasma [5]: 30 to 36 min

Reference: paper PMC3311015 (Proceedings of the Japan Academy. Series B, Physical and …, 2011)
